Source: ChEMBL document CHEMBL1129528, “Synthesis and biological evaluation of N-acetylneuraminic acid-based rotavirus inhibitors” (J Med Chem, 1996)

How the values were obtained:
Format in all cases: functional, organism-based
[1] = system: Rotavirus; assay: Inhibitory activity against NCDV(bovine) rotavirus strain.
[2] = system: Rotavirus; assay: Inhibitory activity against SA11 (simian) rotavirus strain.
[3] = system: Rotavirus; assay: Inhibitory activity against UK(bovine) rotavirus strain.
[4] = system: Rotavirus; assay: Inhibitory activity against Wa(human) rotavirus strain.

IC50 ([1]; Rotavirus) [mM] | IC50 ([2]; Rotavirus) [mM] | IC50 [3] [mM] | IC50 [4] [mM] | IC50 [1] [mM] | IC50 [2] [mM] | Structure (SMILES)
0.35 | > 25 | 12.5 | > 25 | – | – | COC1OC(CSC2(C(=O)O)CC(O)C(NC(C)=O)C([C@H](O)[C@H](O)COC(C)=O)O2)C(O)C(O)C1NC(C)=O (some centres undefined)
6.25 | 25 | > 25 | > 25 | – | – | COC1OC(CSC2(C(=O)O)CC(O)C(NC(C)=O)C([C@H](O)[C@H](O)CO)O2)C(O)C(O)C1NC(C)=O (some centres undefined)
6.25 | 25 | > 25 | > 25 | – | – | COC1OC(CO)C(SC2(C(=O)O)CC(O)C(NC(C)=O)C([C@H](O)[C@H](O)CO)O2)C(O)C1O (some centres undefined)
6.25 | 6.25 | 25 | > 25 | – | – | CC(=O)NC1C(O)CC(SC[C@@H](O)C2OC3OC(C)(C)OC3C2O)(C(=O)O)OC1[C@H](O)[C@H](O)CO (some centres undefined)
1.5 | > 25 | 25 | > 25 | – | – | COC1OC(CSC2(C(=O)O)CC(O)C(NC(C)=O)C([C@H](O)[C@H](O)COC(C)=O)O2)C(O)C(O)C1O (some centres undefined)
1.5 | 25 | 12.5 | > 25 | – | – | COC1OC(CSC2(C(=O)O)CC(O)C(NC(C)=O)C([C@H](O)[C@H](O)COC(C)=O)O2)C(OC(C)=O)C(O)C1O (some centres undefined)
6.25 | > 25 | > 25 | > 25 | – | – | CO[C@H]1O[C@H](CSC2(C(=O)O)CC(O)C(NC(C)=O)C(C(O)[C@H](O)CO)O2)[C@@H](O)[C@@H]1O (single isomer, unassigned)
– | – | – | – | 6.25 | 25 | COC1OC(CSC2(C(=O)O)CC(O)C(NC(C)=O)C([C@H](O)[C@H](O)CO)O2)C(O)C(O)C1O (stereo in doubt; 14)
6.25 | 12.5 | > 25 | > 25 | – | – | COC1OC(CSC2(C(=O)O)CC(O)C(NC(C)=O)C([C@H](O)[C@H](O)CO)O2)C(O)C(O)C1O (stereo in doubt; 16)
